Results: patent US12576169B2, “Silicon-fluoride acceptor substituted radiopharmaceuticals and precursors thereof” (Technische Universität München, priority 2019, dated 2026)
Read-outs that look alike come from different tables or passages of the source. *1 amine or outer side, *2 acyl side, *3 side chain or, on linkers, in order; H or OH if unused. Where a SMILES comes first, the peptide text is derived from it. Side-chain parts run from the residue outwards. [ ]: non-standard residue; d: D form. The star is where a group is joined. X1 = O=C(O)CC[C@H](NC(=O)N[C@@H](CCC(=O)N[C@H](CCCN*)C(=O)O)C(=O)O)C(=O)O; Benzoyl(4-SiFtBu2) = CC(C)(C)[Si](F)(c1ccc(C(=O)*)cc1)C(C)(C)C; γGlu = O=C(O)[C@H](CCC(=O)[*:2])N[*:1]; dCit = NC(=O)NCCC[C@@H](N)C(=O)O; Suc = O=C(CCC(=O)[*:2])[*:1]; dOrn = NCCC[C@@H](N)C(=O)O; dDap = NC[C@@H](N)C(=O)O; CO = O=C([*:1])[*:2]

What was measured:
[1] = molecular target: T1, human serum albumin (HSA) (Homo sapiens, UniProt P02768); assay: Binding to HSA on a Chiralpak HSA column; type: in vitro ADME; settings: calibration with nine reference substances
T1 construct: purchased H13H-2433
T1 sequence (P02768 25-609): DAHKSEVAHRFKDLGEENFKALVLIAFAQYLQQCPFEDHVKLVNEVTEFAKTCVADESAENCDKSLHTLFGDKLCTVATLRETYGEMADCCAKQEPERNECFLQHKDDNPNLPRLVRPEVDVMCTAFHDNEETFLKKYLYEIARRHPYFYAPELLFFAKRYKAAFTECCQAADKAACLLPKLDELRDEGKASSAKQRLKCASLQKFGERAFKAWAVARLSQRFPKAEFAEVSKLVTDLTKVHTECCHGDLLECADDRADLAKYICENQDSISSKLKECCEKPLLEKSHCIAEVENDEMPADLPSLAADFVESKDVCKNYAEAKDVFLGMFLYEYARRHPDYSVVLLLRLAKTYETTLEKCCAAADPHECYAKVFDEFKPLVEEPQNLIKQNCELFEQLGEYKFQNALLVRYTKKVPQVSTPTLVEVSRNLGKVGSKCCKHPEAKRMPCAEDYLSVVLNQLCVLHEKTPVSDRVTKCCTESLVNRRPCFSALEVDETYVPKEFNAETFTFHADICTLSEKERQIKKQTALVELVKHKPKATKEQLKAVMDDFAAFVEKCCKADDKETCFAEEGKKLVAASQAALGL
Method: For the determination of human serum albumin (HSA) binding, a Chiralpak HSA column (50×3 mm, 5 μm, H13H-2433) was used at a constant flow rate of 0.5 mL/min. The mobile phase composed of a 50 mM NH4OAc solution in water with pH=7 (solvent C) and isopropanol (solvent D) was freshly prepared for each experiment and used only once. The reference substances (Table 1) as well as the analyzed SiFA-PSMA ligands were dissolved in a mixture of solvent C/solvent D (1:1, v/v, 0.5 mg/mL) and eluted from the HSA column (0-3 min: 100% C, 3-20 min: 20% D in C, λ=254 nm). The column was kept at rt and each run was stopped after detection of the signal to reduce the acquisition time. The nine reference substances display an HSA binding range of 13% to 99% and were injected consecutively in order to establish a sigmoidal calibration curve with the software OriginPro 2018b (FIG. 1).

LNCaP cells = assay: Internalization of 18F-labeled ligands into LNCaP cells; type: cell-based, human; settings: internalized activity at 1 h in % of reference [125I]XII; c = 0.5 nM; LNCaP cells (125.000 cells/well); 37° C., DMEM/F-12 add. 5% BSA; corrected for non-specific binding (10 μm PMPA); mean ± SD (n = 3)
Method: LNCaP cells were grown in DMEM/F-12 (add. 10% FCS, v/v) and maintained at 37° C. in a humidified 5% CO2 atmosphere. […] Subsequent to the removal of the culture medium, cells were washed with DMEM-F12 (add. 5% BSA, v/v, 500 μL) and left to equilibrate in DMEM-F12 (add. 5% BSA, v/v, 200 μL) at 37° C. for 15 min. Each well was treated with either DMEM-F12 (add. 5% BSA, v/v, 25 μL) or a 2-(phosphonomethyl)-pentandioic acid (PMPA) solution (100 μM in PBS, 25 μL) for blockade. Afterwards, the ^18F-labeled SiFA-PSMA ligand (5 nM in PBS, 25 μL) was added and the cells were incubated for 1 h at 37° C. The experiment was terminated by placing the 24-well plate on ice for 3 min and removal of the assay medium. Each well was rinsed with HBSS (4° C., 250 μL) and the fractions were combined with the previous assay medium, representing the amount of unbound radioligand. For removal of surface bound activity, LNCaP cells were incubated with PMPA solution (10 μM in PBS, 4° C., 250 μL) for 5 min and rinsed again with PBS (250 μL, 4° C.). The internalized activity was determined by incubation of LNCaP cells with 1 M aq. NaOH (250 μL) for at least 10 min and combination with the fraction of a subsequent wash step with 1 M aq. NaOH (200 μL). Each experiment (control and blockade) was performed in triplicate. […] All internalization studies were accompanied by reference studies using the reference compound XII (2 nM in HBSS add. 1% BSA, v/v), which were performed analogously. Data were corrected for non-specific internalization and normalized to the specific-internalization observed for the radioiodinated reference compound.

PSMA = PSMA (Homo sapiens, UniProt Q04609); assay: IC50 determination: PSMA binding affinity, competition with [125I]XII on LNCaP cells
Sequence of PSMA (Q04609 whole entry): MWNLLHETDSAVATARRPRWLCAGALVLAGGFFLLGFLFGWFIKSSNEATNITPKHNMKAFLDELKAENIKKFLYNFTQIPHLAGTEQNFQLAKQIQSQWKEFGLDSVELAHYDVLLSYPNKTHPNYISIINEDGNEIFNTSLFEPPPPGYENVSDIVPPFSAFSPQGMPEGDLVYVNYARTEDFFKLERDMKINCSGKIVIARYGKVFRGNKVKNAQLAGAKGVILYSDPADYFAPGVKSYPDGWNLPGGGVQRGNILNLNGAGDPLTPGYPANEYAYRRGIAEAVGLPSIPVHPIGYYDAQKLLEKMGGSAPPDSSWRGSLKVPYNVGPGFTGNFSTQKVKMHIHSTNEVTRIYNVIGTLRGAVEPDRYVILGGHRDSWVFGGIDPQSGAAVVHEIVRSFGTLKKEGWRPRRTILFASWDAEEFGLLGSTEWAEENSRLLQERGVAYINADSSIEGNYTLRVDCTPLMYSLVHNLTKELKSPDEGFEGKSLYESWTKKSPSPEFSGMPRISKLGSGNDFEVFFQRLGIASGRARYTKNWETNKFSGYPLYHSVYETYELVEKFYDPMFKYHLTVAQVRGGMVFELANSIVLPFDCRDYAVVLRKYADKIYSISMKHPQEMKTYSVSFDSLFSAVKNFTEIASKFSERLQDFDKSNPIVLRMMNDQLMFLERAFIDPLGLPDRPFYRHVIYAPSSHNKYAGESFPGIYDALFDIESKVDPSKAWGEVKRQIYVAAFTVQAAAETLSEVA
Method: LNCaP cells were grown in Dulbecco's Modified Eagle Medium/Nutrient Mixture F-12 (DMEM/F-12, add. 10% fetal calf serum (FCS), v/v) and maintained at 37° C. in a humidified 5% CO2 atmosphere. […] After removal of the culture medium, LNCaP cells were treated with HBSS (add. 1% BSA, v/v, 4° C., 500 μL) and subsequently left 15 min on ice for equilibration in HBSS (add. 1% BSA, v/v, 4° C., 200 μL). […] For the control series, HBSS (add. 1% BSA, v/v, 25 μL) was used instead of the SiFA-PSMA ligand solution. Each concentration and the control were prepared in triplicate. After 1 h incubation on ice, the assay medium was removed and cells were washed with HBSS (200 μL, 4° C.). […] NaOH (200 μL) for at least 10 min and the resulting cell lysate was removed. The wells were treated again with 1 M aq. […] The experiment was repeated for at least three times and the IC50 value calculated using the GraphPad PRISM 8.0.2 software (Graphpad Software Inc., La Jolla, United States).

[2] = n-Octanol-PBS partition coefficient (logD7.4); type: physicochemical; settings: 18F-labeled ligand; n-octanol/PBS pH=7.4; mean ± SD (n = 5)
Method: Approx. 0.5 MBq of the ^18F-labeled SiFA-PSMA ligand were added into a test tube containing n-octanol (500 μL) and PBS (500 μL, pH=7.4). After vigorously shaking the two-phase mixture for 3 min at rt, the test tube was centrifuged at 9.000 rpm for 5 min to achieve quantitative phase separation. Finally, 150 μL of each layer were pipetted off and measured for activity using a gamma counter. After repeating the experiment for at least five times, the n-octanol-PBS partition coefficient log D7.4 was calculated according to following formula.

[3] = LNCaP cells (150.000 cells/well), reference [125I]XII c = 0.2 nM, 1 h, 4° C., HBSS add. 1% BSA, mean ± SD (n = 3)

Row | SMILES | Binding to HSA [1] | Internalization (LNCaP cells) | IC50 (PSMA) | logD7.4 [2] | IC50 (PSMA; [3])
1 | CC(C)(C)[Si](F)(c1ccc(C(=O)NC[C@@H](NC(=O)CCCCCNC(=O)CC[C@@H](NC(=O)N[C@H](CCC(=O)O)C(=O)O)C(=O)O)C(=O)N[C@H](CCCCNC(=O)CCC(=O)NCCC[C@@H](NC(=O)CC[C@H](NC(=O)N[C@@H](CCC(=O)O)C(=O)O)C(=O)O)C(=O)O)C(=O)O)cc1)C(C)(C)C [SiFA-PSMA ligand 02 d] | ≥98.9% | 119.56 ± 5.84% | 9.9 ± 0.8 nM | −3.24 ± 0.03 | 
2 | CC(C)(C)[Si](F)(c1ccc(C(=O)NC[C@@H](NC(=O)CNC(=O)CNC(=O)CNC(=O)CC[C@H](NC(=O)N[C@@H](CCC(=O)O)C(=O)O)C(=O)O)C(=O)N[C@H](CCCCNC(=O)CCC(=O)NCCC[C@@H](NC(=O)CC[C@H](NC(=O)N[C@@H](CCC(=O)O)C(=O)O)C(=O)O)C(=O)O)C(=O)O)cc1)C(C)(C)C [SiFA-PSMA ligand 02 e] ({Glu-CO-γGlu}-GGG[dDap](Benzoyl(4-SiFtBu2))[dK]([Suc-X1])-OH) | ≥98.9% | 190.26 ± 16.87% | 9 ± 2.2 nM | −3.50 ± 0.04 | 
3 | CC(C)(C)[Si](F)(c1ccc(C(=O)NC[C@@H](NC(=O)[C@@H](CC(=O)O)NC(=O)[C@@H](CCC(=O)O)NC(=O)[C@H](N)CCC(=O)O)C(=O)N[C@H](CCCCNC(=O)CCC(=O)NCCC[C@@H](NC(=O)CC[C@H](NC(=O)N[C@@H](CCC(=O)O)C(=O)O)C(=O)O)C(=O)O)C(=O)O)cc1)C(C)(C)C [SiFA-PSMA ligand 03 a] (H-[dE][dE][dD][dDap](Benzoyl(4-SiFtBu2))[dK]([Suc-X1])-OH) | 98.8% | 135.74 ± 6.70% |  | −3.80 ± 0.06 | 9.3 ± 1.7 nM
4 | CC(C)(C)[Si](F)(c1ccc(C(=O)NC[C@@H](NC(=O)[C@@H](CCC(=O)O)NC(=O)[C@@H](CCC(=O)O)NC(=O)[C@H](N)CCC(=O)O)C(=O)N[C@H](CCCCNC(=O)CCC(=O)NCCC[C@@H](NC(=O)CC[C@H](NC(=O)N[C@@H](CCC(=O)O)C(=O)O)C(=O)O)C(=O)O)C(=O)O)cc1)C(C)(C)C [SiFA-PSMA ligand 03 b] (H-[dE][dE][dE][dDap](Benzoyl(4-SiFtBu2))[dK]([Suc-X1])-OH) | 98.9% | 135.78 ± 5.50% |  | −3.85 ± 0.04 | 8.8 ± 1 nM
5 | CC(C)(C)[Si](F)(c1ccc(C(=O)NC[C@@H](NC(=O)[C@@H](CCCNC(N)=O)NC(=O)[C@@H](CCC(=O)O)NC(=O)[C@H](N)CCC(=O)O)C(=O)N[C@H](CCCCNC(=O)CCC(=O)NCCC[C@@H](NC(=O)CC[C@H](NC(=O)N[C@@H](CCC(=O)O)C(=O)O)C(=O)O)C(=O)O)C(=O)O)cc1)C(C)(C)C [SiFA-PSMA ligand 03 c] (H-[dE][dE][dCit][dDap](Benzoyl(4-SiFtBu2))[dK]([Suc-X1])-OH) | 98.6% | 87.55 ± 2.28% |  | −3.31 ± 0.02 | 11.7 ± 1.5 nM
6 | CC(C)(C)[Si](F)(c1ccc(C(=O)NC[C@@H](NC(=O)[C@@H](CN)NC(=O)[C@@H](CCC(=O)O)NC(=O)[C@H](N)CCC(=O)O)C(=O)N[C@H](CCCCNC(=O)CCC(=O)NCCC[C@@H](NC(=O)CC[C@H](NC(=O)N[C@@H](CCC(=O)O)C(=O)O)C(=O)O)C(=O)O)C(=O)O)cc1)C(C)(C)C [SiFA-PSMA ligand 03 d] (H-[dE][dE][dDap][dDap](Benzoyl(4-SiFtBu2))[dK]([Suc-X1])-OH) | 97.2% | 171.82 ± 9.57% |  | −3.42 ± 0.05 | 9.1 ± 0.8 nM
7 | CC(C)(C)[Si](F)(c1ccc(C(=O)NC[C@@H](NC(=O)[C@@H](CCCN)NC(=O)[C@@H](CCC(=O)O)NC(=O)[C@H](N)CCC(=O)O)C(=O)N[C@H](CCCCNC(=O)CCC(=O)NCCC[C@@H](NC(=O)CC[C@H](NC(=O)N[C@@H](CCC(=O)O)C(=O)O)C(=O)O)C(=O)O)C(=O)O)cc1)C(C)(C)C [SiFA-PSMA ligand 03 e] (H-[dE][dE][dOrn][dDap](Benzoyl(4-SiFtBu2))[dK]([Suc-X1])-OH) | 97.5% | 111.98 ± 3.90% |  | −3.40 ± 0.17 | 8.5 ± 1.2 nM
8 | CC(C)(C)[Si](F)(c1ccc(C(=O)NC[C@@H](NC(=O)[C@@H](CCCCN)NC(=O)[C@@H](CCC(=O)O)NC(=O)[C@H](N)CCC(=O)O)C(=O)N[C@H](CCCCNC(=O)CCC(=O)NCCC[C@@H](NC(=O)CC[C@H](NC(=O)N[C@@H](CCC(=O)O)C(=O)O)C(=O)O)C(=O)O)C(=O)O)cc1)C(C)(C)C [SiFA-PSMA ligand 03 f] (H-[dE][dE][dK][dDap](Benzoyl(4-SiFtBu2))[dK]([Suc-X1])-OH) | 96.9% | 94.24 ± 6.01% |  | −3.43 ± 0.02 | 6.9 ± 1 nM
9 | CC(C)(C)[Si](F)(c1ccc(C(=O)NC[C@@H](NC(=O)CNC(=O)[C@@H](CCC(=O)O)NC(=O)[C@H](N)CCC(=O)O)C(=O)N[C@H](CCCCNC(=O)CCC(=O)NCCC[C@@H](NC(=O)CC[C@H](NC(=O)N[C@@H](CCC(=O)O)C(=O)O)C(=O)O)C(=O)O)C(=O)O)cc1)C(C)(C)C [SiFA-PSMA ligand 03 g] | 98.4% | 121.44 ± 3.72% |  | −3.56 ± 0.04 | 11.9 ± 2 nM
10 | C[C@H](O)[C@@H](NC(=O)[C@@H](CCC(=O)O)NC(=O)[C@H](N)CCC(=O)O)C(=O)N[C@H](CNC(=O)c1ccc([Si](F)(C(C)(C)C)C(C)(C)C)cc1)C(=O)N[C@H](CCCCNC(=O)CCC(=O)NCCC[C@@H](NC(=O)CC[C@H](NC(=O)N[C@@H](CCC(=O)O)C(=O)O)C(=O)O)C(=O)O)C(=O)O [SiFA-PSMA ligand 03 h] (H-[dE][dE][dT][dDap](Benzoyl(4-SiFtBu2))[dK]([Suc-X1])-OH) | 97.8% | 107.42 ± 3.66% |  | −3.66 ± 0.03 | 10.7 ± 2.1 nM
11 | CC(C)(C)[Si](F)(c1ccc(C(=O)NC[C@@H](NC(=O)[C@@H](Cc2ccccc2)NC(=O)[C@@H](CCC(=O)O)NC(=O)[C@H](N)CCC(=O)O)C(=O)N[C@H](CCCCNC(=O)CCC(=O)NCCC[C@@H](NC(=O)CC[C@H](NC(=O)N[C@@H](CCC(=O)O)C(=O)O)C(=O)O)C(=O)O)C(=O)O)cc1)C(C)(C)C [SiFA-PSMA ligand 03 i] (H-[dE][dE][dF][dDap](Benzoyl(4-SiFtBu2))[dK]([Suc-X1])-OH) | 98.9% | 50.33 ± 2.97% |  | −2.30 ± 0.03 | 20.6 ± 1.8 nM
12 | CC(C)(C)[Si](F)(c1ccc(C(=O)NC[C@@H](NC(=O)[C@H](N)CNC(=O)[C@@H](CCC(=O)O)NC(=O)[C@H](N)CCC(=O)O)C(=O)N[C@H](CCCCNC(=O)CCC(=O)NCCC[C@@H](NC(=O)CC[C@H](NC(=O)N[C@@H](CCC(=O)O)C(=O)O)C(=O)O)C(=O)O)C(=O)O)cc1)C(C)(C)C [SiFA-PSMA ligand 04] | 97.9% | 124.49 ± 2.61% | 12.2 ± 1.9 nM | −3.33 ± 0.11 | 
13 | CC(C)(C)[Si](F)(c1ccc(C(=O)NC[C@@H](NC(=O)[C@@H](CCCNC(N)=O)NC(=O)[C@@H](CCCNC(N)=O)NC(=O)[C@H](N)CCCNC(N)=O)C(=O)N[C@H](CCCCNC(=O)CCC(=O)NCCC[C@@H](NC(=O)CC[C@H](NC(=O)N[C@@H](CCC(=O)O)C(=O)O)C(=O)O)C(=O)O)C(=O)O)cc1)C(C)(C)C [SiFA-PSMA ligand 05] (H-[dCit][dCit][dCit][dDap](Benzoyl(4-SiFtBu2))[dK]([Suc-X1])-OH) | 95.7% | 90.13 ± 6.13% | 16.2 ± 2 nM | −3.17 ± 0.02 | 
